{"source": "patent US20210338846A1", "about": "“COMPETITIVE PROSTATE-SPECIFIC MEMBRANE ANTIGEN (PSMA) BINDING AGENTS FOR REDUCTION OF NON-TARGET ORGAN UPTAKE OF RADIOLABELED PSMA INHIBITORS FOR PSMA POSITIVE TUMOR IMAGING AND RADIOPHARMACEUTICAL THERAPY” (The Johns Hopkins University, priority 2018, published 2021)", "tested_on": "PSMA+ PC-3 PiP and PSMA− PC-3 flu tumors", "test": "Biodistribution of [177Lu]VK-I-45 without and with co-injection of competing inhibitor [Lu]VK-I-45", "format": "in vivo, mice", "settings": "self blocking; only a modest reduction in PSMA+PiP tumor uptake", "description": "VK-01-45 and its Lu-177 complex was reported in international PCT patent application publication no. WO 2017/165473 A, to Ray et al., which is incorporated herein by reference in its entirety. […] This approach can be applied to all compounds in WO 2017/165473 A1, to Ray et al."}
{"smiles": "O=C([O-])CN1CCN(CC(=O)[O-])CCN(CC(=O)NCCCCC(=O)N(CCCC[C@H](NC(=O)N[C@@H](CCC(=O)O)C(=O)O)C(=O)O)Cc2ccc(Br)cc2)CCN(CC(=O)[O-])CC1.[Lu+3]", "note": "[[Lu]VK-01-45]", "values": [{"measurement": "effect of competing inhibitor on two-hour kidney uptake and retention of [177Lu]VK-01-45", "result": "can be reduced"}]}
